Source: ChEMBL document CHEMBL4038347, “Converting Teixobactin into a Cationic Antimicrobial Peptide (AMP)” (2017)
Values after ≈ are worked out from the molar mass of the structure shown. Active and inactive are the calls of the source. No cut-off for these calls is given here. Where a SMILES comes first, the peptide text is derived from it. Bridges are numbered along the chain shown (N, C = ends). [ ]: non-standard residue; d: D form. d(aIle) = CC[C@H](C)[C@@H](N)C(=O)O; dNMeF = CN[C@H](Cc1ccccc1)C(=O)O; Orn = NCCC[C@H](N)C(=O)O

What was measured:
Assay type in all cases: functional
Staphylococcus aureus = experiment: Antibacterial activity against Staphylococcus aureus ATCC 29213 after 24 hrs by broth microdilution method
Escherichia coli = experiment: Antibacterial activity against Escherichia coli ATCC 25922 after 24 hrs by broth microdilution method
Bacillus subtilis = experiment: Antibacterial activity against Bacillus subtilis ATCC 6051 after 24 hrs by broth microdilution method
Pseudomonas aeruginosa = experiment: Antibacterial activity against Pseudomonas aeruginosa ATCC 27853 after 24 hrs by broth microdilution method

| SMILES | MIC (Staphylococcus aureus; ATCC 29213, 24 h) | MIC (Escherichia coli; ATCC 25922, 24 h) | MIC (Bacillus subtilis; ATCC 6051, 24 h) | MIC (Pseudomonas aeruginosa; ATCC 27853, 24 h) | MIC (Staphylococcus aureus) | MIC (Escherichia coli) | MIC (Pseudomonas aeruginosa) | MIC (Bacillus subtilis) |
| --- | --- | --- | --- | --- | --- | --- | --- | --- |
| CC[C@H](C)[C@H](NC(=O)[C@@H](Cc1ccccc1)NC)C(=O)N[C@@H](CO)C(=O)N[C@H](CCC(N)=O)C(=O)N[C@@H](C(=O)N[C@H](C(=O)N[C@@H](CN)C(=O)N[C@H]1C(=O)N[C@@H](CN)C(=O)N[C@@H](CCCCN)C(=O)N[C@@H]([C@@H](C)CC)C(=O)O[C@H]1C)[C@@H](C)CC)[C@@H](C)CC | 32 µg/mL (≈ 26 µM) | 128 µg/mL (≈ 104 µM) | 8 µg/mL (≈ 6.5 µM) | 128 µg/mL (≈ 104 µM) |  |  |  |  |
| CC[C@H](C)[C@H](NC(=O)[C@@H](Cc1ccccc1)NC)C(=O)N[C@@H](CO)C(=O)N[C@H](CCC(N)=O)C(=O)N[C@@H](C(=O)N[C@H](C(=O)N[C@@H](CCCCN)C(=O)N[C@H]1C(=O)N[C@@H](C)C(=O)N[C@@H](CCCN)C(=O)N[C@@H]([C@@H](C)CC)C(=O)O[C@H]1C)[C@@H](C)CC)[C@@H](C)CC | 128 µg/mL (≈ 103 µM) | 512 µg/mL (≈ 412 µM) | 16 µg/mL (≈ 12.9 µM) | 512 µg/mL (≈ 412 µM) |  |  |  |  |
| CC[C@H](C)[C@H](NC(=O)[C@@H](Cc1ccccc1)NC)C(=O)N[C@@H](CO)C(=O)N[C@H](CN)C(=O)N[C@@H](C(=O)N[C@H](C(=O)N[C@@H](CN)C(=O)N[C@H]1C(=O)N[C@@H](CN)C(=O)N[C@@H](CCCCN)C(=O)N[C@@H]([C@@H](C)CC)C(=O)O[C@H]1C)[C@@H](C)CC)[C@@H](C)CC | 64 µg/mL (≈ 53.9 µM) | 64 µg/mL (≈ 53.9 µM) | 16 µg/mL (≈ 13.5 µM) | 64 µg/mL (≈ 53.9 µM) |  |  |  |  |
| CC[C@H](C)[C@H](NC(=O)[C@@H](Cc1ccccc1)NC)C(=O)N[C@@H](CCCCN)C(=O)N[C@H](CCC(N)=O)C(=O)N[C@@H](C(=O)N[C@H](C(=O)N[C@@H](CCCCN)C(=O)N[C@H]1C(=O)N[C@@H](C)C(=O)N[C@@H](CCCN)C(=O)N[C@@H]([C@@H](C)CC)C(=O)O[C@H]1C)[C@@H](C)CC)[C@@H](C)CC (stereo in doubt) |  |  | 32 µg/mL (≈ 24.9 µM) |  | inactive | inactive | inactive |  |
| CC[C@H](C)[C@H](NC(=O)[C@@H](Cc1ccccc1)NC)C(=O)N[C@@H](CN)C(=O)N[C@H](CCC(N)=O)C(=O)N[C@@H](C(=O)N[C@H](C(=O)N[C@@H](CO)C(=O)N[C@H]1C(=O)N[C@@H](CN)C(=O)N[C@@H](CCCCN)C(=O)N[C@@H]([C@@H](C)CC)C(=O)O[C@H]1C)[C@@H](C)CC)[C@@H](C)CC | 4 µg/mL (≈ 3.25 µM) | 64 µg/mL (≈ 52 µM) | 4 µg/mL (≈ 3.25 µM) | 64 µg/mL (≈ 52 µM) |  |  |  |  |
| CC[C@H](C)[C@H](NC(=O)[C@@H](Cc1ccccc1)NC)C(=O)N[C@@H](CCCCN)C(=O)N[C@H](CCCCN)C(=O)N[C@@H](C(=O)N[C@H](C(=O)N[C@@H](CCCCN)C(=O)N[C@H]1C(=O)N[C@@H](C)C(=O)N[C@@H](CCCNC(=N)N)C(=O)N[C@@H]([C@@H](C)CC)C(=O)O[C@H]1C)[C@@H](C)CC)[C@@H](C)CC | 32 µg/mL (≈ 24.1 µM) | 32 µg/mL (≈ 24.1 µM) | 4 µg/mL (≈ 3.01 µM) | 32 µg/mL (≈ 24.1 µM) |  |  |  |  |
| CC[C@H](C)[C@H](NC(=O)[C@@H](Cc1ccccc1)NC)C(=O)N[C@@H](CO)C(=O)N[C@H](CCC(N)=O)C(=O)N[C@@H](C(=O)N[C@H](C(=O)N[C@@H](CO)C(=O)N[C@H]1C(=O)N[C@@H](C)C(=O)N[C@@H](CCCN)C(=O)N[C@@H]([C@@H](C)CC)C(=O)O[C@H]1C)[C@@H](C)CC)[C@@H](C)CC | 2 µg/mL (≈ 1.66 µM) | 32 µg/mL (≈ 26.6 µM) | 0.25 µg/mL (≈ 0.208 µM) | 256 µg/mL (≈ 213 µM) |  |  |  |  |
| CC[C@H](C)[C@H](NC(=O)[C@@H](Cc1ccccc1)NC)C(=O)N[C@@H](CCCCN)C(=O)N[C@H](CCC(N)=O)C(=O)N[C@@H](C(=O)N[C@H](C(=O)N[C@@H](CCCCN)C(=O)N[C@H]1C(=O)N[C@@H](CCCCN)C(=O)N[C@@H](CCCCN)C(=O)N[C@@H]([C@@H](C)CC)C(=O)O[C@H]1C)[C@@H](C)CC)[C@@H](C)CC | 256 µg/mL (≈ 189 µM) | 128 µg/mL (≈ 94.4 µM) | 8 µg/mL (≈ 5.9 µM) | 256 µg/mL (≈ 189 µM) |  |  |  |  |
| CC[C@H](C)[C@H](NC(=O)[C@@H](Cc1ccccc1)NC)C(=O)N[C@@H](CCCCN)C(=O)N[C@H](CCCCN)C(=O)N[C@@H](C(=O)N[C@H](C(=O)N[C@@H](CCCCN)C(=O)N[C@H]1C(=O)N[C@@H](C)C(=O)N[C@@H](CCCN)C(=O)N[C@@H]([C@@H](C)CC)C(=O)O[C@H]1C)[C@@H](C)CC)[C@@H](C)CC (H-[dNMeF]IK[dK][d(aIle)]IK[dT]A[Orn]I; ester 8-C) | 256 µg/mL (≈ 199 µM) | 32 µg/mL (≈ 24.9 µM) | 16 µg/mL (≈ 12.5 µM) | 64 µg/mL (≈ 49.8 µM) |  |  |  |  |
| CC[C@H](C)[C@H](NC(=O)[C@@H](Cc1ccccc1)NC)C(=O)N[C@@H](CCCCN)C(=O)N[C@H](CCCCN)C(=O)N[C@@H](C(=O)N[C@H](C(=O)N[C@@H](CO)C(=O)N[C@H]1C(=O)N[C@@H](C)C(=O)N[C@@H](CCCNC(=N)N)C(=O)N[C@@H]([C@@H](C)CC)C(=O)O[C@H]1C)[C@@H](C)CC)[C@@H](C)CC | 32 µg/mL (≈ 24.9 µM) | 64 µg/mL (≈ 49.8 µM) | 4 µg/mL (≈ 3.11 µM) | 64 µg/mL (≈ 49.8 µM) |  |  |  |  |
| CC[C@H](C)[C@H](NC(=O)[C@@H](CCCCN)NC)C(=O)N[C@@H](CO)C(=O)N[C@H](CCC(N)=O)C(=O)N[C@@H](C(=O)N[C@H](C(=O)N[C@@H](CO)C(=O)N[C@H]1C(=O)N[C@@H](C)C(=O)N[C@@H](CCCNC(=N)N)C(=O)N[C@@H]([C@@H](C)CC)C(=O)O[C@H]1C)[C@@H](C)CC)[C@@H](C)CC |  |  |  |  | inactive | inactive | inactive | inactive |
| CC[C@H](C)[C@H](NC(=O)[C@@H](Cc1ccccc1)NC)C(=O)N[C@@H](CCCCN)C(=O)N[C@H](CCCCN)C(=O)N[C@@H](C(=O)N[C@H](C(=O)N[C@@H](CO)C(=O)N[C@H]1C(=O)N[C@@H](C)C(=O)N[C@@H](CCCN)C(=O)N[C@@H]([C@@H](C)CC)C(=O)O[C@H]1C)[C@@H](C)CC)[C@@H](C)CC (H-[dNMeF]IK[dK][d(aIle)]IS[dT]A[Orn]I; ester 8-C) | 16 µg/mL (≈ 12.9 µM) | 64 µg/mL (≈ 51.5 µM) | 4 µg/mL (≈ 3.22 µM) | 64 µg/mL (≈ 51.5 µM) |  |  |  |  |

Next, values leading:

| MIC (Staphylococcus aureus; ATCC 29213, 24 h) | MIC (Escherichia coli; ATCC 25922, 24 h) | MIC (Bacillus subtilis; ATCC 6051, 24 h) | MIC (Pseudomonas aeruginosa; ATCC 27853, 24 h) | MIC (Staphylococcus aureus) | MIC (Escherichia coli) | MIC (Pseudomonas aeruginosa) | MIC (Bacillus subtilis) | SMILES |
| --- | --- | --- | --- | --- | --- | --- | --- | --- |
| 256 µg/mL (≈ 195 µM) | 32 µg/mL (≈ 24.3 µM) | 4 µg/mL (≈ 3.04 µM) | 64 µg/mL (≈ 48.7 µM) |  |  |  |  | CC[C@H](C)[C@H](NC(=O)[C@@H](Cc1ccccc1)NC)C(=O)N[C@@H](CO)C(=O)N[C@H](CCCCN)C(=O)N[C@@H](C(=O)N[C@H](C(=O)N[C@@H](CCCCN)C(=O)N[C@H]1C(=O)N[C@@H](CCCCN)C(=O)N[C@@H](CCCCN)C(=O)N[C@@H]([C@@H](C)CC)C(=O)O[C@H]1C)[C@@H](C)CC)[C@@H](C)CC (H-[dNMeF]IS[dK][d(aIle)]IK[dT]KKI; ester 8-C) |
| 16 µg/mL (≈ 13.5 µM) | 64 µg/mL (≈ 53.9 µM) | 4 µg/mL (≈ 3.37 µM) | 32 µg/mL (≈ 26.9 µM) |  |  |  |  | CC[C@H](C)[C@H](NC(=O)[C@@H](Cc1ccccc1)NC)C(=O)N[C@@H](CN)C(=O)N[C@H](CN)C(=O)N[C@@H](C(=O)N[C@H](C(=O)N[C@@H](CO)C(=O)N[C@H]1C(=O)N[C@@H](CN)C(=O)N[C@@H](CCCCN)C(=O)N[C@@H]([C@@H](C)CC)C(=O)O[C@H]1C)[C@@H](C)CC)[C@@H](C)CC |
| 4 µg/mL (≈ 3.04 µM) | 32 µg/mL (≈ 24.3 µM) | 1 µg/mL (≈ 0.761 µM) | 128 µg/mL (≈ 97.4 µM) |  |  |  |  | CC[C@H](C)[C@H](NC(=O)[C@@H](Cc1ccccc1)NC)C(=O)N[C@@H](CCCCN)C(=O)N[C@H](CCC(N)=O)C(=O)N[C@@H](C(=O)N[C@H](C(=O)N[C@@H](CO)C(=O)N[C@H]1C(=O)N[C@@H](CCCCN)C(=O)N[C@@H](CCCCN)C(=O)N[C@@H]([C@@H](C)CC)C(=O)O[C@H]1C)[C@@H](C)CC)[C@@H](C)CC (stereo in doubt) |
| 2 µg/mL (≈ 1.59 µM) | 32 µg/mL (≈ 25.4 µM) | 0.5 µg/mL (≈ 0.397 µM) | 64 µg/mL (≈ 50.8 µM) |  |  |  |  | CC[C@H](C)[C@H](NC(=O)[C@@H](Cc1ccccc1)NC)C(=O)N[C@@H](CO)C(=O)N[C@H](CCC(N)=O)C(=O)N[C@@H](C(=O)N[C@H](C(=O)N[C@@H](CO)C(=O)N[C@H]1C(=O)N[C@@H](CCCCN)C(=O)N[C@@H](CCCN)C(=O)N[C@@H]([C@@H](C)CC)C(=O)O[C@H]1C)[C@@H](C)CC)[C@@H](C)CC |
| 8 µg/mL (≈ 6.36 µM) | 32 µg/mL (≈ 25.4 µM) | 1 µg/mL (≈ 0.795 µM) | 32 µg/mL (≈ 25.4 µM) |  |  |  |  | CC[C@H](C)[C@H](NC(=O)[C@@H](Cc1ccccc1)NC)C(=O)N[C@@H](CCCCN)C(=O)N[C@H](CCCCN)C(=O)N[C@@H](C(=O)N[C@H](C(=O)N[C@@H](CO)C(=O)N[C@H]1C(=O)N[C@@H](C)C(=O)N[C@@H](CCCCN)C(=O)N[C@@H]([C@@H](C)CC)C(=O)O[C@H]1C)[C@@H](C)CC)[C@@H](C)CC (H-[dNMeF]IK[dK][d(aIle)]IS[dT]AKI; ester 8-C) |
| 4 µg/mL (≈ 3.14 µM) | 32 µg/mL (≈ 25.1 µM) | 1 µg/mL (≈ 0.785 µM) | 64 µg/mL (≈ 50.3 µM) |  |  |  |  | CC[C@H](C)[C@H](NC(=O)[C@@H](Cc1ccccc1)NC)C(=O)N[C@@H](CO)C(=O)N[C@H](CCCCN)C(=O)N[C@@H](C(=O)N[C@H](C(=O)N[C@@H](CO)C(=O)N[C@H]1C(=O)N[C@@H](CCCCN)C(=O)N[C@@H](CCCCN)C(=O)N[C@@H]([C@@H](C)CC)C(=O)O[C@H]1C)[C@@H](C)CC)[C@@H](C)CC (H-[dNMeF]IS[dK][d(aIle)]IS[dT]KKI; ester 8-C) |
